Experimental data published in ChEMBL document CHEMBL4665725, “Identification of potent inhibitors of the sortilin-progranulin interaction” (Bioorg Med Chem Lett, 2020).
Values after ≈ are worked out from the molar mass of the structure shown.

Molecular target: T1, Sortilin/Progranulin (Homo sapiens, UniProt P28799+Q99523)
T1 sequence (Q99523 whole entry): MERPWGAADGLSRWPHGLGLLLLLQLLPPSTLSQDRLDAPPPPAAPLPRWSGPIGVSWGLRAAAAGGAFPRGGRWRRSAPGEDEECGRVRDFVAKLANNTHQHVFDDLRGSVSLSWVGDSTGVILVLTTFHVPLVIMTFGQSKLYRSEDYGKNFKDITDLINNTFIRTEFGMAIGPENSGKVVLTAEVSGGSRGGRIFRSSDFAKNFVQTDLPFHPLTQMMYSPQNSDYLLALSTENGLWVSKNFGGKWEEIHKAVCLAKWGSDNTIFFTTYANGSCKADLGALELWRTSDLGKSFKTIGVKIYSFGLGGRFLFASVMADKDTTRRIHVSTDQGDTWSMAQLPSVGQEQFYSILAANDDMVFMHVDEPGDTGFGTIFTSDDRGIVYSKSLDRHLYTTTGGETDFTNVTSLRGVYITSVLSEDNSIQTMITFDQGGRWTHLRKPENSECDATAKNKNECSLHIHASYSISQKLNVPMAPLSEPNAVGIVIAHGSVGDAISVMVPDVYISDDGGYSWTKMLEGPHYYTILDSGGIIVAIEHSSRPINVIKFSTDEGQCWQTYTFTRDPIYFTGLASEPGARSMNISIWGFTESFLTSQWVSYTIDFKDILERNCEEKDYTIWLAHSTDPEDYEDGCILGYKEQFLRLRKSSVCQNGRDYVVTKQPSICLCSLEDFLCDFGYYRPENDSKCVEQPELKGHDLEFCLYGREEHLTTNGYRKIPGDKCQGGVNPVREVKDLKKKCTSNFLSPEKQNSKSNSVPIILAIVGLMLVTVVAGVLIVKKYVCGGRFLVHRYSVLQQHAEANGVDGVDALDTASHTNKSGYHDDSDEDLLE
T1 sequence (P28799 whole entry): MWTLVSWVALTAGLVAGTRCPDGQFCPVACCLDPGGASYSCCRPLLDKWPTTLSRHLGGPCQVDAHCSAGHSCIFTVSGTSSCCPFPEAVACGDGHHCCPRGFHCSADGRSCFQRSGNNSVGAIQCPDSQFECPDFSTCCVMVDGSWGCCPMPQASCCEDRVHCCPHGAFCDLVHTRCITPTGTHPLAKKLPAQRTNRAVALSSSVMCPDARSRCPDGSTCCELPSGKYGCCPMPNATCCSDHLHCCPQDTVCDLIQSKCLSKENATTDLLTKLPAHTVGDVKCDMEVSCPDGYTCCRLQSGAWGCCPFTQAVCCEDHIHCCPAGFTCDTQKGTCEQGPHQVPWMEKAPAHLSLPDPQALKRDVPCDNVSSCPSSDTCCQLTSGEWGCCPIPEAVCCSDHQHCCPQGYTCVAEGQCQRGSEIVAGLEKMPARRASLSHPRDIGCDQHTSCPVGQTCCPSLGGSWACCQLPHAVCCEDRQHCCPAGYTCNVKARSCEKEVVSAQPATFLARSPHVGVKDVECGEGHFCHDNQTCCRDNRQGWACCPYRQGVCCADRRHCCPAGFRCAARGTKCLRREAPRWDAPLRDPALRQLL
Assay: Inhibition of SORT1 (unknown origin)-GRN (unknown origin) protein-protein interaction by HTRF assay
Conditions: not given
For `COc1cccc(C(=O)N[C@@H](CC(C)C)C(=O)O)c1`, the IC50 was 6.8 µM. In the case of `Cn1nc(C(C)(C)C)cc1C(=O)O`, the IC50 is reported as 8.3 µM. Work on `CC(C)C[C@H](NC(=O)C1CCCC1)C(=O)O` yielded an IC50 of 25.3 µM. Compound `CC(C)C[C@H](NC(=O)c1cnc2ccccc2n1)C(=O)O` has an IC50 of 6.3 µM. With `CC(C)(C)CC[C@H](NC(=O)c1cc(Cl)cc(Cl)c1)C(=O)O` the IC50 was 0.17 µM. `C=C(C)C[C@H](NC(=O)c1cc(Cl)cc(Cl)c1)C(=O)O` showed an IC50 of 17.1 µM. Work on `CC(C)C[C@H](NC(=O)C1CN(Cc2cc(Cl)cc(Cl)c2)CCO1)C(=O)O` (stereo not given in full) yielded an IC50 of 14.4 µM. With `CC(C)(C)c1cc(C(=O)O)n(-c2ccccc2)n1` the IC50 was 7.8 µM. With `O=C(N[C@@H](CC12CC(C1)C2)C(=O)O)c1cc(Cl)cc(Cl)c1` the IC50 was 18 µM. `CC(C)(C)CCc1cc(C(=O)O)n(Cc2ccccc2)n1` showed an IC50 greater than 67 µM. `CC(C)(C)c1cc(C(=O)O)n(Cc2ccccc2)n1` gave an IC50 of 2 µM. Compound `CC(C)(C)OC[C@H](NC(=O)c1cc(Cl)cc(Cl)c1)C(=O)O` has an IC50 of 1.5 µM. Compound `CC(C)(C)CC[C@H](NC(=O)c1cc(Cl)c[nH]1)C(=O)O` has an IC50 of 0.09 µM. For `CC(C)(C)C[C@H](NC(=O)c1ccc(Oc2ccccc2)nc1)C(=O)O`, the IC50 was 0.065 µM. Work on `CC(C)c1cc(C(=O)O)n(CCc2ccccc2)n1` yielded an IC50 greater than 67 µM. `CC(C)(C)CC[C@H](NC(=O)c1ccc(Oc2ccccc2)nc1)C(=O)O` showed an IC50 of 0.02 µM. Compound `CC(C)(C)c1cc(C(=O)O)n(CCc2ccccc2)n1` has an IC50 of 5.3 µM. With `O=C(N[C@@H](Cc1ccccc1)C(=O)O)c1cc(Cl)cc(Cl)c1` the IC50 was greater than 67 µM. Work on `O=C(N[C@@H](CC1CCCCC1)C(=O)O)c1cc(Cl)cc(Cl)c1` yielded an IC50 of 2.3 µM. `CC(OC(C)(C)C)[C@H](NC(=O)c1cc(Cl)cc(Cl)c1)C(=O)O` (stereo not given in full) gave an IC50 greater than 67 µM. In the case of `CC(C)C[C@H](NC(=O)c1cccc(Cl)c1)C(=O)O`, the IC50 is reported as 4.5 µM. `O=C(N[C@@H](CC1CC1)C(=O)O)c1cc(Cl)cc(Cl)c1` gave an IC50 of 10.7 µM. `CC(C)(C)C[C@H](NC(=O)c1cc(Cl)cc(Cl)c1)C(=O)O` gave an IC50 of 0.35 µM. Compound `CC(C)C[C@H](NC(=O)C(C)(C)Cc1ccc(Cl)cc1)C(=O)O` has an IC50 of 6.8 µM. Work on `CC(C)C[C@H](NC(=O)c1cnn(C)c1)C(=O)O` yielded an IC50 of 5.3 µM. `CC(C)(C)c1cc(C(=O)O)n(Cc2ccc(Oc3ccccc3)nc2)n1` gave an IC50 of 2.1 µM. Work on `CC(C)(C)c1cc(C(=O)O)n(Cc2cc(Cl)cc(Cl)c2)n1` yielded an IC50 of 2.1 µM. Compound `CC(C)C[C@H](NC(=O)c1ccc(Cl)c(Cl)c1)C(=O)O` has an IC50 of 4.3 µM. Work on `CC(C)C[C@H](NC(=O)c1cc(Cl)cc(Cl)c1)C(=O)O` yielded an IC50 of 2.7 µM. `CC(C)(C)c1cc(C(=O)O)n(Cc2ccc(-n3cccn3)nc2)n1` showed an IC50 of 3 µM. In the case of `CC(C)C[C@H](NC(c1cc(Cl)cc(Cl)c1)C(F)(F)F)C(=O)O` (stereo not given in full), the IC50 is reported as 10.8 µM. Work on `CC(C)(C)c1cc(C(=O)O)n(Cc2nnc(-c3ccccc3)o2)n1` yielded an IC50 of 0.49 µM. For `CC(C)(C)Cc1cc(C(=O)O)n(Cc2ccccc2)n1`, the IC50 was 6.6 µM. `CC(C)(C)CC(NC(=O)c1cc(Cl)cc(Cl)c1)c1nn[nH]n1` (racemic) showed an IC50 of 6.9 µM.

System: not listed separately
Assay: Protein binding in rat plasma
Type: ADME, cell-free
Conditions: read-out: PPB (converted)
For `CC(C)(C)CC[C@H](NC(=O)c1cc(Cl)cc(Cl)c1)C(=O)O`, the fraction unbound was 0.0028. Work on `CC(C)(C)CC[C@H](NC(=O)c1cc(Cl)c[nH]1)C(=O)O` yielded a fraction unbound of 0.0216. With `CC(C)(C)CC[C@H](NC(=O)c1ccc(Oc2ccccc2)nc1)C(=O)O` the fraction unbound was 0.0077.

System: not listed separately
Assay: Solubility of the compound at pH 2
Type: physicochemical
Conditions: buffer
For `CC(C)(C)CC[C@H](NC(=O)c1cc(Cl)cc(Cl)c1)C(=O)O`, the solubility was 69 µM (≈ 22.9 µg/mL). Work on `CC(C)(C)CC[C@H](NC(=O)c1cc(Cl)c[nH]1)C(=O)O` yielded a solubility of 123 µM (≈ 35.3 µg/mL). For `CC(C)(C)CC[C@H](NC(=O)c1ccc(Oc2ccccc2)nc1)C(=O)O`, the solubility was 126 µM (≈ 44.9 µg/mL).

System: not listed separately
Assay: Solubility of the compound at pH 7
Type: physicochemical
Conditions: buffer
In the case of `CC(C)(C)CC[C@H](NC(=O)c1cc(Cl)cc(Cl)c1)C(=O)O`, the solubility is reported as 134 µM (≈ 44.5 µg/mL). Compound `CC(C)(C)CC[C@H](NC(=O)c1cc(Cl)c[nH]1)C(=O)O` has a solubility of 135 µM (≈ 38.7 µg/mL). Work on `CC(C)(C)CC[C@H](NC(=O)c1ccc(Oc2ccccc2)nc1)C(=O)O` yielded a solubility of 147 µM (≈ 52.4 µg/mL).

System: P-gp
Assay: Substrate activity at rat P-gp assessed as efflux ratio
Type: ADME
Conditions: not told
In the case of `CC(C)(C)CC[C@H](NC(=O)c1cc(Cl)cc(Cl)c1)C(=O)O`, the efflux ratio is reported as 3.9. `CC(C)(C)CC[C@H](NC(=O)c1cc(Cl)c[nH]1)C(=O)O` gave an efflux ratio of 1.3. With `CC(C)(C)CC[C@H](NC(=O)c1ccc(Oc2ccccc2)nc1)C(=O)O` the efflux ratio was 3.5.

System: P-gp
Assay: Substrate activity at human P-gp in MDR1 cells assessed as efflux ratio
Type: ADME, cell-based
Conditions: not given
For `CC(C)(C)CC[C@H](NC(=O)c1cc(Cl)cc(Cl)c1)C(=O)O`, the efflux ratio was 1.8. Work on `CC(C)(C)CC[C@H](NC(=O)c1cc(Cl)c[nH]1)C(=O)O` yielded an efflux ratio of 2. `CC(C)(C)CC[C@H](NC(=O)c1ccc(Oc2ccccc2)nc1)C(=O)O` showed an efflux ratio of 2.2.

System: not listed separately
Assay: Apparent permeability of the compound
Type: ADME
Conditions: not told
With `CC(C)(C)CC[C@H](NC(=O)c1cc(Cl)cc(Cl)c1)C(=O)O` the Papp was 23 ×10⁻⁶ cm/s. Compound `CC(C)(C)CC[C@H](NC(=O)c1cc(Cl)c[nH]1)C(=O)O` has a Papp of 4.8 ×10⁻⁶ cm/s. Compound `CC(C)(C)CC[C@H](NC(=O)c1ccc(Oc2ccccc2)nc1)C(=O)O` has a Papp of 7 ×10⁻⁶ cm/s.

System: not listed separately
Assay: Clearance in rat
Type: ADME
Conditions: in vivo
With `CC(C)(C)CC[C@H](NC(=O)c1cc(Cl)cc(Cl)c1)C(=O)O` the clearance was 0.6 mL/min/kg. Compound `CC(C)(C)CC[C@H](NC(=O)c1cc(Cl)c[nH]1)C(=O)O` has a clearance of 2.8 mL/min/kg. For `CC(C)(C)CC[C@H](NC(=O)c1ccc(Oc2ccccc2)nc1)C(=O)O`, the clearance was 3.35 mL/min/kg.

System: not listed separately
Assay: Unbound clearance in rat
Type: ADME
Conditions: in vivo
For `CC(C)(C)CC[C@H](NC(=O)c1cc(Cl)cc(Cl)c1)C(=O)O`, the CL free was 215 mL/min/kg. Compound `CC(C)(C)CC[C@H](NC(=O)c1cc(Cl)c[nH]1)C(=O)O` has a CL free of 134 mL/min/kg. For `CC(C)(C)CC[C@H](NC(=O)c1ccc(Oc2ccccc2)nc1)C(=O)O`, the CL free was 453 mL/min/kg.

System: not listed separately
Assay: Half life in rat
Type: ADME
Conditions: in vivo
With `CC(C)(C)CC[C@H](NC(=O)c1cc(Cl)cc(Cl)c1)C(=O)O` the half-life was 5.9 h. `CC(C)(C)CC[C@H](NC(=O)c1cc(Cl)c[nH]1)C(=O)O` gave a half-life of 1.5 h. `CC(C)(C)CC[C@H](NC(=O)c1ccc(Oc2ccccc2)nc1)C(=O)O` gave a half-life of 1.6 h.

System: not listed separately
Assay: Oral bioavailability in rat
Type: ADME, organism-based
Conditions: in vivo
Compound `CC(C)(C)CC[C@H](NC(=O)c1cc(Cl)cc(Cl)c1)C(=O)O` has a bioavailability of 100%.

Molecular target: T1, Sortilin/Progranulin
Assay: Inhibition of SORT1 (unknown origin)-GRN (unknown origin) protein-protein interaction assessed as increase in progranulin level by cell-based ELISA
Conditions: not given
`CC(C)(C)CC[C@H](NC(=O)c1cc(Cl)cc(Cl)c1)C(=O)O` showed an IC50 of 0.65 µM. In the case of `CC(C)(C)CC[C@H](NC(=O)c1cc(Cl)c[nH]1)C(=O)O`, the IC50 is reported as 0.29 µM. Work on `CC(C)(C)CC[C@H](NC(=O)c1ccc(Oc2ccccc2)nc1)C(=O)O` yielded an IC50 of 0.12 µM.
